“Also recorded” adds a separate entry of the source.
Assays:
[1] = tested on: influenza A/WSN/33 (rWSN) H1N1 virus; conditions: mouse, in vivo
[2] = tested on: type I IFN signaling in BMDMs; assay type: cell-based, mouse
[3] = tested on: type I IFN response elements (ISREs); experiment: ISRE luciferase reporter metabolic screen (2fTGH-ISRE-CBG99 cell line); assay type: cell-based
From the text: Therefore, a library of microbiome associated metabolites was screened for the ability to enhance type I IFN signaling.^21 A reported cell line that harbors multiple type I IFN response elements (ISREs) driving firefly luciferase was utilized.^22 Each metabolite was screened for the ability to enhance reporter activity in the background of type I IFN or polyIC (an inducer of type I IFN production) treatment (schematic FIG. 4A). Using this methodology, 11 metabolites were identified that increased reporter activity following polyIC co-stimulation (FIG. 4B) and 5 metabolites that increased ISRE reporter activity with type I IFN co-stimulation (FIG. 10).
Metabolites were screened using the 2fTGH-ISRE-CBG99 luciferase cell line.^22 The day before screening the reporter cells were plated at 3×10^4 cell/well in 96 well plates. […] Luciferase was measured at 14 hours post-treatment for IFN-β, and 24 hours post-treatment for poly(IC) using the […] […] Plates were read on a luminometer (1 second read time) using the CYTATION 5 (BioTek). For secondary validation, cells were treated with 1000 μM, 100 μM, 10 μM, and 1 μM of metabolite and 5 or 50 U/ml of IFN-β (PBL Assay Science) or 2.5 or […] of poly(IC) (Amersham Biosciences) and measured as above.

[4] = tested on: H1N1 influenza strain California/09; experiment: Influenza infection of mice, strain California/09; assay type: in vivo; conditions: mice infected with California/09
From the text: (§1) FIG. 19A, FIG. 19B, FIG. 19C, FIG. 19D, FIG. 19E, FIG. 19F, FIG. 19G, FIG. 19H, FIG. 19I, FIG. 19J, FIG. 19L, FIG. 19K, FIG. 19M, and FIG. 19N (FIG. 19A and FIG. 19B) Representative images of influenza H1N1 staining by polyclonal antibody on lung cross sections from wild-type (WT) (FIG. 19A) and Irgm1^−/− (FIG. 19B) mice 6 days postinfection (representative images from 5-6 mice per group from two experiments). Bar=200 μm. (FIG. 19C and FIG. 19D) Stool (FIG. 19C) and serum (FIG. 19D) desaminotyrosine levels measured by mass spectroscopy in wild-type mice mock or treated with two weeks of antibiotics and then treated with 200 mM desaminotyrosine in drinking water for one week (n=5-13 per group from two experiments). (FIG. 19E, FIG. 19F, FIG. 19G, and FIG. 19H) Kaplan-Meier survival analysis of nonantibiotic and antibiotic-treated wild-type mice given control or desaminotyrosine in drinking water and then infected with H1N1 influenza strains PR8 (FIG. 19E and FIG. 19F) or Cali/09 (FIG. 19G and FIG. 19H) (n=10 mice per group). *p<0.05 by Mantel-Cox test. (FIG. 19I) Kaplan-Meier survival analysis of wild-type mice treated with indicated antibiotic(s) and then infected with influenza (n=20 mice per group from two experiments). *p<0.05, **p<0.01, and ****p<0.0001 compared to mock treated infected mice by Mantel-Cox test with Bonferroni-corrected threshold. […]

epithelial proliferation = experiment: Crypt height and epithelial proliferation in mice; assay type: in vivo; conditions: VNAM 2 weeks, then 200 mM desaminotyrosine in drinking water
Method: FIG. 13 depicts an experimental scheme of mice treated with VNAM for 2 weeks and then give +/−200 mM desaminotyrosine in the drinking water for 1 week. After 1 week, the mice were continued on +/−200 mM desaminotyrosine and then treated with +/−1 mg/kg polyIC intraperitoneally once per day for 4 days and then sacrificed 1 day later.
(FIG. 14A, FIG. 14B, FIG. 14C, and FIG. 14D) Representative images of the crypt height for control (FIG. 14A), polyIC (FIG. 14B), deasminotyrosine, (FIG. 14C), and desaminotyrosine+polyIC (FIG. 14D) treated mice. FIG. 14E depicts a graph quantifying the crypt height after the various treatments relative to the control treated mice.
To examine the effects of desaminotyrosine on epithelial proliferation, mice were treated with and without antibiotics for 2 weeks and then with or without desaminotyrosine for […] and with or without polyIC (FIG. 13).

[5] = Barrier function: 4 kD dextran (FD4) in serum after gavage; assay type: in vivo, mice; conditions: VNAM 2 weeks then 200 mM desaminotyrosine 1 week in drinking water
Method: FIG. 17A depicts a graph quantifying the amount of damaged area following treatment with DSS +/−desaminotyrosine. FIG. 17B depicts a graph dextrain-FD4 measured in the serum of mice treated with VNAM for 2 weeks and then +/−200 mM of desaminotyrosine for 1 week in the drinking water. 4 kD Dextran was administered by gavage and serum collected 4 hours post-gavage.

[6] = tested on: bone marrow derived macrophages infected with Influenza H1N1; assay type: cell-based
[7] = tested on: H1N1 influenza strain PR8; experiment: Influenza infection of mice, strain PR8; assay type: in vivo; conditions: mice infected with PR8
From the text: as §1

[8] = tested on: dextran sodium sulfate (DSS) induced colitis; assay type: in vivo; conditions: antibiotic treated mice, 2.5% DSS
type I IFN activity = assay type: in vivo, mice; conditions: after 2-week antibiotic course; desaminotyrosine orally plus polyIC injections vs polyIC alone

Row | SMILES | influenza associated-mortality [1] | polyIC and type I IFN expression of IP-10 ([2]; BMDMs from Mavs−/− mice) | IP-10 expression ([2]; BMDMs from Stat1−/− mice, polyIC or type I IFN with desaminotyrosine) | ISG transcript abundance (IP-10) ([2]; wild-type BMDMs, combined with either polyIC or type I IFN) | ISRE reporter activity (fold increase in luminescence), type I IFN signaling ([3]; with polyIC co-stimulation) | ISRE reporter activity (fold increase in luminescence), type I IFN signaling ([3]; with type I IFN (IFN-β) co-stimulation) | protection (survival) [4] | crypt height (epithelial proliferation) | epithelial proliferation (epithelial proliferation; alone) | barrier function (dextran-FD4 in serum 4 hours post-gavage) [5] | influenza RNA in bone marrow derived macrophages ([6]; 24 hours pretreatment (100 μM), then infection MOI-2 48 hours, IFN/Ifnar-dependent) | ISG transcripts (Oas1, IP-10) after in vitro influenza infection ([6]; pretreated BMDMs, Ifnar-dependent) | airway epithelial damage and apoptosis (H+E, cleaved caspase 3) [1] | desaminotyrosine mediated protection (survival) [1] | phenotypes associated with antibiotic treatment (morbidity and mortality) [1] | viral RNA in the lungs (matrix, qRT-PCR) [1] | protection (survival) [7] | response to DSS injury (epithelial proliferation, crypt preservation, damage) [8] | damaged area of the distal colon after DSS treatment ([8]; with desaminotyrosine (control mice ~90%)) | type I IFN activity in the serum (type I IFN activity)
1 | CN[C@H](CC(C)C)C(=O)N[C@H]1C(=O)N[C@@H](CC(N)=O)C(=O)N[C@H]2C(=O)N[C@H]3C(=O)N[C@H](C(=O)N[C@H](C(=O)O)c4cc(O)cc(O)c4-c4cc3ccc4O)[C@H](O)c3ccc(c(Cl)c3)Oc3cc2cc(c3O[C@@H]2O[C@H](CO)[C@@H](O)[C@H](O)[C@H]2O[C@H]2C[C@](C)(N)[C@H](O)[C@H](C)O2)Oc2ccc(cc2Cl)[C@H]1O [vancomycin, reference compound] | enhanced influenza associated-mortality |  |  |  |  |  |  |  |  |  |  |  |  |  |  |  |  |  |  | 
2 | Cc1ncc([N+](=O)[O-])n1CCO [metronidazole, reference compound] | enhanced influenza associated-mortality |  |  |  |  |  |  |  |  |  |  |  |  |  |  |  |  |  |  | 
3 | O=C(O)CCc1ccc(O)cc1 [desaminotyrosine, 3-(4-hydroxyphenyl)propanoic acid] |  | still enhanced | not enhanced | increased | enhanced type I IFN signaling in a dose-dependent manner | enhanced type I IFN signaling in a dose-dependent manner | protected | increased crypt height | increased; also recorded: stimulated epithelia proliferation in the small intestine alone | no effect on barrier function; also recorded: Not significant | decreased influenza RNA; also recorded: depleted | increased ISG transcripts | greater airway epithelial damage and apoptosis were observed in control lungs | abolished | recused the phenotypes associated with antibiotic treatment | less viral RNA was found in the lungs | protected | promoted epithelial profliferation and crypt preservation; also recorded: rescues DSS damage | ~8% | increased type I IFN activity in the serum
